Test results from US20210392935A1, “PREPARATION COMPRISING A PROBIOTIC STRAIN OF THE GENUS BACILLUS MEGATERIUM AND A POLYUNSATURATED FATTY ACID COMPONENT” (Evonik Operations GmbH, priority 2018, published 2021).

Legend:
Assay type in all cases: cell-based
[1] = test system: Bacillus megaterium DSM 33299; experiment: Lipidometabolomics of supernatants of B. megaterium DSM 33299 with AvailOm dispersion; settings: Bacillus megaterium DSM 33299, AvailOm dispersion; net concentrations
From the text: (§1) Bacterial supernatant samples were subjected to lipid extraction using RP-phase solid phase extraction and subsequently analyzed by ultra performance liquid chromatography ESI tandem mass spectrometry (UPLC-MS/MS) according to a published procedure. Under these conditions approximately 40 different LM, including 5-hydroxy-eicosapentaenoic acid 5-HEPE, 8-HEPE, 11-HEPE, 12-HEPE, 15-HEPE, 18-HEPE, 5-hydroxy-eicosatetraenoic acid (5-HETE), 8-HETE, 11-HETE, 12-HETE, 15-HETE, 4-hydroxy-DHA (4-HDHA), 7-HDHA, 13-HDHA, 14-HDHA, 17-HDHA, lipoxin A4 (LXA4), LXB4, resolvin E1 (RvE1), RvE3, resolvin D1-5 (RvD1-5), AT-RvD1, RvD2, protectin D1 (PD1), AT-PD1, maresin 1(MaR1), MaR2, plus 4 fatty acid substrates can be detected with a lower limit of detection of 1 pg.
(§2) 47 additional Bacillus megaterium strains sourced from various habitats were screened for their SPM production capacity to determine if this is a general phenomenon of the species Bacillus megaterium and to detect strain-specific differences in types and quantities of SPM being produced. Cells were cultured as detailed in example 4, with dispersion formulation of AvailOm® serving as omega-3 fatty acid source. Cell-free preparations of AvailOm® were treated and analyzed in parallel and served as controls for non-enzymatic, spontaneous formation of oxygenation products. […]

[2] = test system: Bacillus megaterium DSM 32963 cells; experiment: Lipidometabolomics (UPLC-MS/MS) of PUFA oxygenation products in supernatants of B. megaterium DSM 32963 with AvailOm; settings: for Extracellular concentration of PUFA oxygenation product: − bile acids, net of cell-free control; for abundance with dispersion formulation and/or bile acids compared to AvailOm alone (in words): B. megaterium DSM 32963 supernatants
Method: To investigate the amount of extracellularly appearing 18-HEPE, the B. megaterium DSM 32963 cells were cultivated as described in example 1. The cells were resuspended in 10 ml LBG or LBG containing 9.76 g/I FeSSIF-V2 (biorelevant.com), which is a mixture of taurocholate, phospholipids and other components designed to simulate bile surfactants, and 2 ml of supplements (table 2) were added, respectively. Additionally, the supplements were also added respectively to the different media in shaking flasks without cells and treated under the same conditions (controls). The 18-HEPE concentrations of the culture supernatants and controls were determined after incubation at 16 h, 30° C. and 200 rpm (table 4). […] Of note, the omega-3 4 18-HEPE conversion rate detected by this method is up to 0.075, which exceeds the basal content of 18-HEPE of 0.0005% in an esterified fish oil, disclosed by WO 2017/041094. More importantly, we discovered that the omega-3 lysine salt is converted by Bacillus megaterium strains to a multitude of (final) SPM products at even higher concentrations than 18-HEPE (see example 6), which is of physiological relevance.
as §1
To investigate if Bacillus megaterium is capable of producing other PUFA oxygenation products in addition to 18-HEPE, a lipidometabolomics screening of supernatants from Bacillus megaterium strain 32963 cultured as in example 4 with AvailOm® was performed, either dissolved or in a dispersion formulation, with or without bile acids. Cell-free preparations of AvailOm® formulations were treated and analyzed in parallel and served as controls for non-enzymatic, spontaneous formation of oxygenation products. Values given in table 6 display net concentrations of products formed, i.e. after subtraction of control values. […] Concentrations of several SPM exceed by far the concentrations of SPM found in human plasma samples, which are typically in a range of ˜20-100 pg/ml. For comparison, human breast milk contains ˜6.000 pg/ml RvE1 and ˜10.000 pg/ml RvD1 [42].

[3] = test system: Bacillus megaterium DSM 33296; experiment: Lipidometabolomics of supernatants of B. megaterium DSM 33296 with AvailOm dispersion; settings: Bacillus megaterium DSM 33296, AvailOm dispersion; net concentrations
From the text: as §1, §2

[4] = test system: Bacillus megaterium strains; experiment: Screen of 47 additional Bacillus megaterium strains for SPM production capacity; settings: 47 additional strains, AvailOm dispersion
From the text: as §1, §2

Row | Molecule | abundance with dispersion formulation and/or bile acids compared to AvailOm alone (in words) [2] | further results
1 | CC/C=C\C[C@H](O)/C=C/C=C\C=C\C=C\[C@@H](O)[C@@H](O)C/C=C\CCC(=O)O [RvD1, resolvin D1] | – | Extracellular concentration of PUFA oxygenation product [1]: 4389 pg/mL; Extracellular concentration of PUFA oxygenation product ([2]; AvailOm dispersion): 1863 pg/mL; Extracellular concentration of PUFA oxygenation product ([2]; AvailOm): 598 pg/mL; Extracellular concentration of PUFA oxygenation product [3]: 3626 pg/mL
2 | CCCCC/C=C\C/C=C\C=C\C(O)C/C=C\CCCC(=O)O (stereo not shown) [8-HETE, 8-hydroxy-eicosatetraenoic acid] | lower | –
3 | CC[C@H](O)C(O)/C=C/C=C/C=C\C/C=C\C/C=C\CCCC(=O)O (stereo partly shown) [RvE3, resolvin E3] | – | concentration in most of the strains [4]: up to 1.3 μg/ml
4 | 9-hydroxyoctadecadienoic acid [9-HODE] | lower | –
5 | CC/C=C\CC(O)/C=C/C=C\C/C=C\C/C=C\CCCC(=O)O (stereo not shown) [15-HEPE, 15-hydroxy-eicosapentaenoic acid] | lower | –
6 | 12-hydroxy-eicosapentaenoic acid [12-HEPE] | lower | –
7 | 11-hydroxy-eicosapentaenoic acid [11-HEPE] | lower | –
8 | CCC(O)/C=C/C=C\C/C=C\C/C=C\C/C=C\CCCC(=O)O (stereo not shown) [18-HEPE, 18-hydroxy-eicosapentaenoic acid] | lower | –
9 | CCC=CCC=CCC=CCC=CC=CC(O)CCCC(=O)O (stereo not shown) [5-HEPE, 5-hydroxy-eicosapentaenoic acid] | lower | –
10 | 5-hydroxy-eicosatetraenoic acid [5-HETE] | lower | –
